Columns and labels:
Type in all cases: binding, human
[1] = test system: CD14; assay: Competitive staining of PBMC with anti-CD14 scFv-CaM-fusions, flow cytometry; conditions: peptide in molar excess, FIG. 7A
Description: (§1) To investigate whether the linkers identified to provide modulation of binding in scFv D1.3 can be used as a “universal” module to change binding properties in other scFv fragments than D1.3, the characterized CaM-linker variants were cloned into other scFv antibodies with different specificities. The specificities were chosen according to their utility in future cell staining and separation applications, with two scFvs directed against different human clusters of differentiation (CD14, CD4) and the small hapten biotin. To identify M13 peptide-dependent scFv-CaM-variants for those specificities, human blood cells (PBMC) were stained using purified scFvs and subsequently analysed by flow cytometry. Bound scFvs were detected with fluorescently labeled anti-His-antibodies.
(§2) The production and purification of different scFv-fusions was performed as described in Example 3. All antibodies and staining reagents used for flow cytometry applications were from Miltenyi Biotec (Bergisch Gladbach, Germany). For stainings with anti-Biotin scFv-variants, PBMC (peripheral blood mononuclear cells) were prestained with appropriate IgG-conjugates. The stainings were performed in 1.5 mL microtubes. 1×10^6 PBMC per sample were incubated on ice for 10 min in 110 μL 1×B-TBS (1×TBS+0.5% [w/v] bovine serum albumin)+5 mM CaCl2 (pH 7.4) containing anti-CD14-Biotin (dilution: 1:11). The reaction was stopped by addition of 1 mL buffer and centrifugation at 300 g for 5 min at 4° C. The supernatant was removed completely and the pellet was stored on ice and resuspended in buffer immediately before the next staining step. The following stainings were performed in 96-well polypropylene plates. Purified scFvs were diluted to appropriate concentrations in 50 μL 1×B-TBS/5 mM CaCl2 (pH 7.4 [anti-Biotin] or pH 8.0 [anti-CD14, anti-CD4]) per well. For competitive screenings, peptide (M13 peptide [Anaspec, Fremont, USA], M13-variants library and CBP (calmodulin-binding peptide) library [Genscript, Piscataway, USA]) was added in molar excess in a total volume of 5 μL per well, whereas the control stainings were supplied with 5 μL 1×B-TBS/5 mM CaCl2. The diluted scFvs were preincubated for 45 min at RT and afterwards chilled on ice for 5 min. […]
(§3) Calmodulin binds to a variety of binding partners. […] On the one hand, 38 mutated variants of the M13 peptide were analysed, e.g. substitution mutants known to have higher affinities for calmodulin, truncated variants and combinations thereof. In addition, 29 peptides derived from further calmodulin-binding proteins like calcium ATPase, spectrin and nitric oxidase synthase were analysed with regard to potential binding modulating properties. […]

[2] = test system: CD4; assay: Competitive staining of PBMC with anti-CD4 scFv-CaM-fusions, flow cytometry; conditions: FIG. 7C
Description: as §1, §2, §3

[3] = Competitive staining of anti-CD14-Biotin prestained PBMC with anti-Biotin scFv-CaM-fusions, flow cytometry; conditions: opposite relative to M13 peptide, FIG. 7B
Description: as §1
The production and purification of different scFv-fusions was performed as described in Example 3. […]
as §3

## M13-Var7: variant of the known high affinity mutant of M13 (RWKKAFIAVSAANRFKKI; M13-Var7)
[1]
  signal change compared to M13 peptide, anti-CD14 scFv clones permutated in the middle of CaM and linear clone: higher signal decrease

## M13 peptide: calmodulin-binding peptide M13 (residues 577-602 of skeletal muscle myosin light chain kinase) [reference compound]
[2]
  change in binding signal, linear anti-CD4 scFv clone: did not have any influence at all
[2]; peptide in molar excess, 'the same effect' refers to further increase in fluorescence intensity
  change in binding signal, C-terminally permutated clones of anti-CD4 scFv: increase in binding signal

## CBP-Var6: another derivative of calcium-transporting ATPase (RGQILWFRGLNRIQTQIKVVNAFS; CBP-Var6; peptide derived from protein of Gallus gallus)
[3]
  switching behaviour, anti-Biotin scFv-CaM-fusions M-1, M-2: opposite switching behaviour
[2]; relative to M13 peptide
  change in fluorescence intensity, anti-CD4 scFv M-variants: further increase in fluorescence intensity

## M13-Var6: variant of the known high affinity mutant of M13 (WKKAFIAVSAANRFKKIS; M13-Var6)
[1]
  signal change compared to M13 peptide, anti-CD14 scFv clones permutated in the middle of CaM and linear clone: higher signal decrease

## M13-Var5: variant of the known high affinity mutant of M13 (RWKKAFIAVSAANRFKKIS; M13-Var5)
[1]
  signal change compared to M13 peptide, anti-CD14 scFv clones permutated in the middle of CaM and linear clone: higher signal decrease

## CBP-Var10: derived from ionotropic glutamate receptor NMDA1 (KKKATFRAITSTLASSFKRRRSSK; CBP-Var10; peptide from protein of Homo sapiens)
[2]
  change in binding signal, linear anti-CD4 scFv clone: unexpected decrease in binding signal

## CBP-Var8: calmodulin-binding peptide, a derivative of spectrin (KTASPWKSARLMVHTVATFNSIKE; CBP-Var8; peptide from protein of Homo sapiens)
[1]
  signal change compared to M13 peptide, anti-CD14 scFv C-terminally permutated and linear variant: slightly higher decrease

Reference: patent US10730922B2, “Composition and method for affecting the binding of antigen-binding polypeptides to antigens” (Miltenyi Biotec GmbH, priority 2016, dated 2020)
